# Measured values taken from US9994533B2, “Method of preparing ATG's analogue, and the application of ATG and it's analogue” (Longhua Hospital Shanghai University of Traditional Chinese …, priority 2016, dated 2018).
# Tests used:
# NOX4 [1] = assay: NOX4 protein expression in human immortal podocytes under high glucose (Western blot); format: cell-based; conditions: ATG 10 μmol/L
# From the text: The detection method of Western Blot and mRNA used in the present embodiment is a detection method commonly used by person skilled in the art, and the specific detection method is described in “Molecular Biology Laboratory Manual” (People's Military Medical Press, published in 2011 Jun. 1). 3.1 Western blot and Realtime PCR confirmed that ATG in human immortal podocytes can inhibit the overexpression of NOX4 caused by high glucose stimuli, see table 5 and FIG. 6. The expression of NOX4 in the total protein, membrane protein and mitochondrial protein of human immortal podocytes was detected in the experiment. […] The meanings of the symbols in FIG. 6 are as follows: HG: high glucose (glucose […]); T: total protein; Tmeb cell membrane protein; Mito: mitochondrial protein.
# Tubulin beta-3 chain = target: T1, Tubulin beta-3 chain (Homo sapiens, UniProt Q13509); assay: DARTS mass spectrometry of 293T lysate after ATG; format: binding; conditions: ATG 300 μM, pronase 1:1000, TBB3_HUMAN
# T1 construct: endogenous in cells; host or cells: 293T
# T1 sequence (Q13509 whole entry): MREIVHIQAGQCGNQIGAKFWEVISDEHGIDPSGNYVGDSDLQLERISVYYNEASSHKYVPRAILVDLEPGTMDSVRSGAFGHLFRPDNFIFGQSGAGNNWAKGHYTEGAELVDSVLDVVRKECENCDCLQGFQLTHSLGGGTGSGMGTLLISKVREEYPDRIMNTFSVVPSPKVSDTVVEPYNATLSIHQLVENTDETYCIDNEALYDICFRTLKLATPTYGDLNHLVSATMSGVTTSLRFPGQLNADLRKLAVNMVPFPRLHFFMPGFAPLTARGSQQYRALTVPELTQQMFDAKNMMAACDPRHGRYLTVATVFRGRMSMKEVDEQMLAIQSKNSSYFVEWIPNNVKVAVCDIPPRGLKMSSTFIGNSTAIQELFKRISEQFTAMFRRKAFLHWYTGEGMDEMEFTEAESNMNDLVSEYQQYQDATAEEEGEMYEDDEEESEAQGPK
# T1 sequence (P68363 whole entry partner): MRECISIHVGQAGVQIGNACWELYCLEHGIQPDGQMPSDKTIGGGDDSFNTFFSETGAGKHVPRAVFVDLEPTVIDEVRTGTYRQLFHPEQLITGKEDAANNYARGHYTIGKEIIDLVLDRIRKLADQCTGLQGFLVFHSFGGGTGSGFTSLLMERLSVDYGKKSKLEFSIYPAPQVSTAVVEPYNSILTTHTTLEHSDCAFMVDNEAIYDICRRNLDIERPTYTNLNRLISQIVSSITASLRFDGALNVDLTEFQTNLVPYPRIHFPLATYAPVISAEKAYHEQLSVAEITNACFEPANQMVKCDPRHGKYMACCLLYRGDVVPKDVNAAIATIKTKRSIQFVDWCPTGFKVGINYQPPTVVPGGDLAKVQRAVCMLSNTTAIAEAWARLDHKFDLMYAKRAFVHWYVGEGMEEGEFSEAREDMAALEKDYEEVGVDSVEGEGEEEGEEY
# Protocol: (§1) 293T cells were digested with M-PER mammalian protein extraction buffer (78501 ThermoFisher) and phosphatase inhibitor (50 mM NaF, 10 mM β-glycerophosphate, 5 mM sodium pyrophosphate, 2 mM Na3VO4); and the protein concentration is determined by Bradford method (500-0006 Bio-rad). ATG was either added or not in the cell lysate. If added, the concentration of ATG was 300 μM. The cells were incubated at room temperature for 1 h. The cells were then lysed by incubating for 20 minutes at room temperature with different concentrations of pronase at 1:1000 (10165921001, Roche). The two groups of lysates are subjected to mass spectrometry and then compared.
# (§2) Furthermore, since the content of PP2A in cells is very low in the normal state, it is considered that the binding ratio of ATG and PP2A is high.
# Tubulin beta-6 chain = target: T2, Tubulin beta-6 chain (Homo sapiens, UniProt Q9BUF5); assay: DARTS mass spectrometry of 293T lysate after ATG; format: binding; conditions: ATG 300 μM, pronase 1:1000, TBB6_HUMAN
# T2 construct: endogenous in cells; host or cells: 293T
# T2 sequence (Q9BUF5 whole entry): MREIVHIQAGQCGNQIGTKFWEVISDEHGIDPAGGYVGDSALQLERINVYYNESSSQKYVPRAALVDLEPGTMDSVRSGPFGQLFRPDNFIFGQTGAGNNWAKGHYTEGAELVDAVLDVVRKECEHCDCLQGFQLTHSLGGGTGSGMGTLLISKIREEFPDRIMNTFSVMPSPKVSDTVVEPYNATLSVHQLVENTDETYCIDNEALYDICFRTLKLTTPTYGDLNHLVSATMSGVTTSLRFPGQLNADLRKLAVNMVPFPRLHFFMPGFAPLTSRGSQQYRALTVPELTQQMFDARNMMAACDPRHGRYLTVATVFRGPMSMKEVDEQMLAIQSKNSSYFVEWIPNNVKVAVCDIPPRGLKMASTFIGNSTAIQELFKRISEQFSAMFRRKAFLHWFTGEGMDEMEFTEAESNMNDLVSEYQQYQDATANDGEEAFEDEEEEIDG
# T2 sequence (P68363 whole entry partner): as the sequence (P68363 whole entry partner) above
# Protocol: as §1, §2
# [2] = target: T3, Serine/threonine-protein phosphatase 2A catalytic subunit beta isoform (Homo sapiens, UniProt P62714); assay: DARTS mass spectrometry of 293T lysate after ATG; format: binding
# T3 construct: endogenous in cells; host or cells: 293T
# T3 sequence (P62714 whole entry, canonical isoform): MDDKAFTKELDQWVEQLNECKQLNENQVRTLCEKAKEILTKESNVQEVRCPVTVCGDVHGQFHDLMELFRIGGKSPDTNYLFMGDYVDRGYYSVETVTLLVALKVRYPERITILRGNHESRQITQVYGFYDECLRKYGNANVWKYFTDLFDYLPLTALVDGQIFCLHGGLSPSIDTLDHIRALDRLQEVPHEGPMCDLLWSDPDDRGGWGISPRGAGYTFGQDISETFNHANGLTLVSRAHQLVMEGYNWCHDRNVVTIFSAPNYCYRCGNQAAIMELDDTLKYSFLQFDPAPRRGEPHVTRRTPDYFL
# Protocol: as §1, §2
# NOX4 [3] = assay: NOX4 protein expression in glomeruli of STZ-eNOS−/− mice (Western Blot); format: in vivo; conditions: for NOX4/GAPDH mean: glomeruli, Western Blot
# From the text: The detection method of Western Blot and mRNA used in the present embodiment is a detection method commonly used by person skilled in the art, and the specific detection method is described in “Molecular Biology Laboratory Manual” (People's Military Medical Press, published in 2011 Jun. 1). 2. ATG can decrease NOX4's protein and mRNA expression in glomeruli of STZ-eNOS^−/− mice.
# PP2AB = target: T4, PP2AB (Homo sapiens, UniProt P62714); assay: DARTS-western blot of ATG binding to PP2A in 293T cells; conditions: ATG 100, 300, 1000 μM, pronase 1:1000, FIG. 1
# T4 construct: endogenous in cells; host or cells: 293T
# T4 sequence (P62714 whole entry): as the sequence (P62714 whole entry, canonical isoform) above
# Protocol: We used ATG to stimulate 293T cells. […] The applied ATG was formulated at 3 different concentrations: 100 μM, 300 μM, 1000 μM. So there are 5 groups of Western Blot: blank group (without addition of pronase), DMSO (pronase 1:1000), ATG 100 μM (pronase 1:1000), ATG 300 μM (pronase 1:1000), ATG 1000 μM (Pronase 1:1000). […] While pronase can digest proteins, it digests more ATG-unbinding proteins than ATG-binding proteins. […] This method is called DARTS.
# In FIG. 1: DARTS-western blot confirmed the binding of ATG to PP2AB; PP2A had three structural units, and ATG bound to the catalytic unit. The catalyst unit of the protein called PP2AB, the gene called PPP2CB.
# [4] = tested on: diabetic kidney disease mice; assay: Proteinuria in STZ-induced diabetic nephropathy mice; format: in vivo; conditions: 40 mg/kg oral once daily
# Protocol: When the mice were 6 weeks of age, streptozotocin (STZ)-induced diabetic nephropathy models were started by tail vein injection. The specific method is: STZ in accordance with the amount of 50 mg/kg is injected in tail vein. 72 hours after the injection, determine whether the modeling is successful by determining the level of blood glucose and urine. When the blood glucose level is more than 16 mmol/L and urine glucose level is between +++ and ++++, the model was considered successful. After 10 weeks of STZ injection, ATG was orally administered at a dose of 40 mg/kg once daily. The control group was given the same volume of DMSO (dimethyl sulfoxide) orally. Treatment was for 8 weeks. Urine protein levels were measured in each group. The number of the mice in each group is 10 in Table 3. […] ACEI: angiotensin converting enzyme inhibitors; ARBs: angiotensin receptor blockers.
# NOX4 [5] = assay: NOX4 protein expression in mouse primary endothelial cells under high glucose (Western blot); format: cell-based
# From the text: The detection method of Western Blot and mRNA used in the present embodiment is a detection method commonly used by person skilled in the art, and the specific detection method is described in “Molecular Biology Laboratory Manual” (People's Military Medical Press, published in 2011 Jun. 1). 3.2 Western blot and Realtime PCR confirmed that ATG could inhibit the overexpression of NOX4 in mouse's primary endothelial cells. The dose of 1 and 10 μmol/L corresponds to the last two bands.
# NOX4 gene = assay: NOX4 mRNA expression in glomeruli of STZ-eNOS−/− mice (RT-PCR); format: in vivo; conditions: FIG. 5
# From the text: The detection method of Western Blot and mRNA used in the present embodiment is a detection method commonly used by person skilled in the art, and the specific detection method is described in “Molecular Biology Laboratory Manual” (People's Military Medical Press, published in 2011 Jun. 1). Further, the mRNA of the glomeruli was extracted and subjected to RT-PCR.
# [6] = ATG 300 μM, pronase 1:1000, PP2AB_HUMAN
structure (smiles),measurement,setting,value
"COc1cc(C[C@H]2C(=O)OC[C@@H]2Cc2ccc(OC)c(OC)c2)ccc1O [ATG, Arctigenin]",T-NOX4/β-actin mean,"NOX4 [1]; High glucose-ATG, total protein, podocytes",1.13
same,"expression of NOX4 in total protein, membrane protein and mitochondrial protein","NOX4 [1]; high glucose, FIG. 6",can inhibit the expression of NOX4 in the above three kinds of structures
same,Ratio (ATG/DMSO),Tubulin beta-3 chain,25.6
same,Spectral Count (ATG),Tubulin beta-3 chain,49
same,Ratio (ATG/DMSO),Tubulin beta-6 chain,13.6
same,Spectral Count (ATG),Tubulin beta-6 chain,25
same,Ratio (ATG/DMSO),[2]; [6],7.8
same,Spectral Count (ATG),[2]; [6],14
same,binding ratio of ATG and PP2A,[2]; conclusion from mass spectrometry,high
same,NOX4/GAPDH mean,NOX4 [3]; Normal group-ATG,0.13
same,NOX4/GAPDH mean,NOX4 [3]; STZ-ATG,0.14
same,"NOX4's protein expression in glomerular, versus untreated group",NOX4 [3]; STZ-eNOS mice administered with ATG,significantly less than that of the untreated group
same,PP2A binding (DARTS-western blot),PP2AB,PP2A binding increased with the increasing concentration of ATG
same,proteinuria (urine protein level),"[4]; Model group - ATG (STZ mice), 0 week",0.98
same,proteinuria (urine protein level),"[4]; Model group - ATG (STZ mice), 1 week",0.95
same,proteinuria (urine protein level),"[4]; Model group - ATG (STZ mice), 2 week",1.10
same,proteinuria (urine protein level),"[4]; Model group - ATG (STZ mice), 3 week",0.66
same,proteinuria (urine protein level),"[4]; Model group - ATG (STZ mice), 4 week",0.66
same,proteinuria (urine protein level),"[4]; Model group - ATG (STZ mice), 5 week",0.37
same,proteinuria (urine protein level),"[4]; Model group - ATG (STZ mice), 6 week",0.22
same,proteinuria (urine protein level),"[4]; Model group - ATG (STZ mice), 7 week",0.18
same,proteinuria (urine protein level),"[4]; Model group - ATG (STZ mice), 8 week",0.18
same,proteinuria (urine protein level),"[4]; Normal group - ATG, 0 week",0.12
same,proteinuria (urine protein level),"[4]; Normal group - ATG, 1 week",0.11
same,proteinuria (urine protein level),"[4]; Normal group - ATG, 2 week",0.18
same,proteinuria (urine protein level),"[4]; Normal group - ATG, 3 week",0.12
same,proteinuria (urine protein level),"[4]; Normal group - ATG, 4 week",0.16
same,proteinuria (urine protein level),"[4]; Normal group - ATG, 5 week",0.18
same,proteinuria (urine protein level),"[4]; Normal group - ATG, 6 week",0.12
same,proteinuria (urine protein level),"[4]; Normal group - ATG, 7 week",0.14
same,proteinuria (urine protein level),"[4]; Normal group - ATG, 8 week",0.13
same,effect on proteinuria,"[4]; STZ mice, 8 weeks",significantly reduces proteinuria
same,effect on proteinuria compared with ACEI/ARBs,"[4]; STZ mice, 8 weeks",superior to the ACEI/ARBs
same,NOX4/B-Tubulin Mean,NOX4 [5]; ATG 1 uM,0.18
same,NOX4/B-Tubulin Mean,NOX4 [5]; ATG 10 uM,0.12
same,mRNA expression of NOX4 gene in glomeruli,NOX4 gene,significantly reduced
